What was measured:
[1] = molecular target: HCV NS3/4A protease complex (Hepatitis C virus genotype 1a, UniProt P27958, C1454S/C1711G); assay: Recombinant HCV NS3/4A protease complex FRET peptide assay (strain not stated); type: biochemical; settings: IC50, NS3/4A protease enzyme assay, strain not stated; activity ranges
[2] = system: HCV replicon in Huh7 cells; assay: HCV replicon cell-based assay; design: species or system HCV strain 1B; settings: Hepatitis C virus, Huh-7, 96 h; HCV replicon, Huh7 cells, 4 days; activity ranges; read-out: EC50
Procedure, shortened: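 Genotype 1b subgenomic replicon Huh7 cells exposed to compound 4 days at 37° C in 4% FCS, 0.5% DMSO medium. EC50 from TaqMan RT-PCR of HCV RNA, normalized to total RNA by RiboGreen; CC50 from alamar Blue fluorescence after 4 h.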

Chain of HCV NS3/4A protease complex (P27958 1027-1711, stated change not applied): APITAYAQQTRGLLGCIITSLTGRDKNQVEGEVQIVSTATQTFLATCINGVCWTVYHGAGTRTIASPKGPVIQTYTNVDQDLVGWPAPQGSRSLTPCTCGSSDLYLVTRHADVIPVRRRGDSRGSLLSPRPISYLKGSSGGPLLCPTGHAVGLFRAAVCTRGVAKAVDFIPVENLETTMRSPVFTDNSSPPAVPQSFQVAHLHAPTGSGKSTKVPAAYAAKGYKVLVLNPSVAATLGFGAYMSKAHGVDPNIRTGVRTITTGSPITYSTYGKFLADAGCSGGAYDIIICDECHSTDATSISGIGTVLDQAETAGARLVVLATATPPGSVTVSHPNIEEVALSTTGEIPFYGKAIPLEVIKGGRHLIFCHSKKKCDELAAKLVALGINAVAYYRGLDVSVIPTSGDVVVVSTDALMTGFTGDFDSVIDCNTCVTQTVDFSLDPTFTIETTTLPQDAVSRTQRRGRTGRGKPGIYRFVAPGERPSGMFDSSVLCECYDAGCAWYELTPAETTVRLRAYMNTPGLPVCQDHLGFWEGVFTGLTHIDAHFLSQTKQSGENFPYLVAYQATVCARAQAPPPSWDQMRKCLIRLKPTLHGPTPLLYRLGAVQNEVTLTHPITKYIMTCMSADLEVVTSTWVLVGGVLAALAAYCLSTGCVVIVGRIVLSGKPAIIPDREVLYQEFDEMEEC
Chain of HCV NS3/4A protease complex (P27958 1027-1711, stated change not applied): as above

Structure (SMILES)	IC50 [1]	EC50 [2]
C=C[C@@H]1C[C@]1(NC(=O)C1C[C@@H](Oc2cc(-c3ccccc3)nc3cc(OC)ccc23)CN1C(=O)[C@@H](NC(=O)C(C)(C)C)C(C)(C)C)C(=O)NS(=O)(=O)C1CC1 (stereo partly drawn) [Compound 101, 1-[2S-(2,2-Dimethylpropionylamino)-3,3-dimethyl-butyryl]-4R-(7-methoxy-2-phenyl-quinolin-4-yloxy)-pyrrolidine-2S-carboxylic acid (1R-cyclo-propanesulfonylaminocarbonyl-2S-vinylcyclopropyl)-amide]	< 50 nM	< 500 nM
C=CC1C[C@]1(NC(=O)[C@@H]1C[C@@H](Oc2cc(-c3ccccc3)nc3cc(OC)ccc23)CN1C(=O)[C@@H](NC(=O)OC(C)(C)C)C(C)CC)C(=O)NS(=O)(=O)C1CC1 (some centres unmarked) [Compound 24]	< 500 nM	< 500 nM
C=C[C@@H]1C[C@]1(NC(=O)C1C[C@@H](Oc2cc(-c3ccccc3)nc3cc(OC)ccc23)CN1C(=O)[C@@H](Nc1ccccc1[N+](=O)[O-])C(C)(C)C)C(=O)NS(=O)(=O)C1CC1 (stereo partly drawn) [Compound 128, 1-[3,3-dimethyl-2S-(2-nitrophenylamino)-butyryl]-4R-(7-methoxy-2-phenyl-quinolin-4-yloxy)-pyrrolidine-2S-carboxylic acid (1R-cyclopropanesulfonyl-aminocarbonyl-2S-vinylcyclopropyl)amide]	< 5000 nM	< 5000 nM
C=C[C@@H]1C[C@]1(NC(=O)C1CC(Oc2cc(-c3ccccc3)nc3cc(OC)ccc23)CN1C(=O)[C@@H](NC(=O)C(=O)OC)C(C)(C)C)C(=O)NS(=O)(=O)C1CC1 (stereo partly drawn) [Compound 121, N-{1S-[2S-(1R-cyclopropanesulfonylaminocarbonyl-2S-vinyl-cyclopropylcarbamoyl)-4R-(7-methoxy-2-phenyl-quinolin-4-yloxy)-pyrrolidine-1-carbonyl]-2,2-dimethyl-propyl}-oxalamic acid methyl ester]	< 50 nM	< 500 nM
C=C[C@@H]1C[C@]1(NC(=O)C1C[C@@H](Oc2cc(-c3ccccc3)nc3cc(OC)ccc23)CN1C(=O)[C@@H](NC(=O)CCC(=O)O)C(C)(C)C)C(=O)NS(=O)(=O)C1CC1 (stereo partly drawn) [Compound 100, N-{1S-[2S-(1R-cyclopropanesulfonylaminocarbonyl-2S-vinyl-cyclopropylcarbamoyl)-4R-(7-methoxy-2-phenyl-quinolin-4-yloxy)-pyrrolidine-1-carbonyl]-2,2-dimethyl-propyl}-succinamic acid]	< 50 nM	< 500 nM
C=COC(=O)N[C@H](C(=O)N1C[C@H](Oc2cc(-c3ccccc3)nc3cc(OC)ccc23)CC1C(=O)N[C@]1(C(=O)NS(=O)(=O)C2CC2)C[C@H]1C=C)C(C)(C)C (stereo partly drawn) [Compound 123, {1S-[2S-(1R-cyclopropanesulfonylaminocarbonyl-2S-vinyl-cyclopropylcarbamoyl)-4R-(7-methoxy-2-phenyl-quinolin-4-yloxy)-pyrrolidine-1-carbonyl]-2,2-dimethyl-propyl}-carbamic acid vinyl ester]	< 50 nM	< 50 nM
C=CC1C[C@]1(NC(=O)[C@@H]1C[C@@H](Oc2cc(-c3ccccc3)nc3cc(OC)ccc23)CN1C(=O)[C@@H](NC(=O)OC(C)(C)C)C(C)C)C(=O)NS(=O)(=O)C1CCC1 (some centres unmarked) [Compound 71]	< 50 nM	< 50 nM
C=CC1C[C@]1(NC(=O)[C@@H]1C[C@@H](Oc2cc(-c3ccccc3)nc3cc(OC)ccc23)CN1C(=O)[C@@H](NC(=O)OC(C)(C)C)C(C)(C)C)C(=O)NS(=O)(=O)C1CCCCC1 (stereo in doubt) [Compound 13, {1-[2-(1-Cyclohexanesulfonylaminocarbonyl-2-vinylcyclopropylcarbamoyl)-4-(7-methoxy-2-phenylquinolin-4-yloxy)pyrrolidine-1-carbonyl]-2,2-dimethylpropyl}carbamic acid tert-butyl ester]	< 500 nM	< 500 nM
C=C1C[C@]1(NC(=O)[C@@H]1C[C@@H](Oc2cc(-c3ccccc3)nc3cc(OC)ccc23)CN1C(=O)C(NC(=O)OC(C)(C)C)C(C)(C)C)C(=O)NS(=O)(=O)c1ccc(F)cc1 (some centres unmarked) [Compound 49]	< 50 nM	< 500 nM
C=CC1C[C@]1(NC(=O)[C@@H]1C[C@@H](Oc2cc(-c3ccccc3)nc3cc(OC)ccc23)CN1C(=O)[C@@H](NC(=O)OC(C)(C)C)C1CCCC1)C(=O)NS(=O)(=O)C1CCC1 (some centres unmarked) [Compound 72]	< 500 nM	< 500 nM

Reference: patent US6872805B2 (Bristol-Myers Squibb Company, priority 2000, dated 2005)
